In a melting point compilation (Tetko et al.):

| SMILES | melting point |
| --- | --- |
| ClCc1ccc(-c2nc3cccc(Cl)c3s2)cc1 | 173 to 175 °C |
| COC(=O)C1CC(OC)=CC1=O (configuration not stated) | 47 to 49 °C |
| O=C(O)c1cc(Cl)c2c(c1)OCO2 | 239 to 241 °C |
| Nc1ccccc1CN1CCSCC1 | 72 to 74 °C |
| O=C(O)c1ccc(/C=C/c2ccc3ccccc3n2)cc1 | 263 to 265 °C |
| CC(C)(C)c1ccc(C(=O)Nc2ccc(O)cc2)cc1 | 196 to 198 °C |
| O=c1c2ccccc2nc(Cl)n1-c1ccccc1 | 127 to 129 °C |
| O=C1COc2c(Cl)cccc2N1 | 201 to 203 °C |
| CNCCCOc1ccc(S(C)(=O)=O)cc1 | 43 to 45 °C |
| O=C(O)c1cnc(Cl)cc1Cl | 158 to 160 °C |
| COC(=O)c1nc2ncc3c(n2n1)C(=O)OCC3 | 197 to 199 °C |
| O=C(O)C1Cc2cc(Cl)ccc2O1 (configuration not stated) | 114 to 118 °C |
| CC(C)=CCSCC(N)C(=O)O (configuration not stated) | 189 to 191 °C |
| O=Cc1ccc(C(=O)O)cc1Cl | 218 to 220 °C |
| NC1CCCc2nc(-c3ccc(F)cc3)sc21 (configuration not stated) | 54 to 56 °C |
| Sc1nnc(-c2ccncc2)n1C1CC1 | 303 to 305 °C |
| CC(NC(=O)OC(C)(C)C)C1CCNCC1 (configuration not stated) | 103 to 105 °C |
| O=C(O)c1cc(Oc2ccccc2)ccn1 | 179 to 181 °C |
| CC(C)(C)OC(=O)NCC#N | 53 to 57 °C |
| COC(=O)C(=O)Nc1ccc(C)cc1 | 147 to 149 °C |
| Cn1ncc2cn[nH]c2c1=O | 246 to 248 °C |
| COc1ccc2c(CO)cc(=O)oc2c1 | 177 to 179 °C |
| Cc1ccc2cc(C=O)c(Cl)nc2c1 | 148 to 150 °C |
| CS(=O)Cc1c(C(=O)O)oc2ccccc12 (configuration not stated) | 177 to 179 °C |
| O=C1CCCc2nc(-c3ccccc3)sc21 | 119 to 121 °C |

| SMILES | melting point |
| --- | --- |
| O=C(O)Cn1ccc2ccc(Cl)cc21 | 166 to 168 °C |
| CCC(=O)NC=C(Cl)Cl | 93 to 95 °C |
| CC1(C)OCC(C)(C(=O)O)CO1 | 117 to 119 °C |
| CC(C)(C)OC(=O)N1CCN(S(=O)(=O)C2CNC2)CC1 | 132 to 134 °C |
| O=C(O)Cc1csc(-c2cccc(C(F)(F)F)c2)n1 | 109 to 111 °C |
| CC(Oc1ccccc1Br)C(=O)O (configuration not stated) | 138 to 140 °C |
| CC(C)CC(N)C(=O)N1CCNC(=O)C1 (configuration not stated) | 162 to 164 °C |
| Cn1ncc([N+](=O)[O-])c1C(=O)O | 159 to 161 °C |
| O=C1OCc2c1cccc2S(=O)(=O)Cl | 124 to 126 °C |
| COc1ccc(C(CNC(=O)CCl)c2c[nH]c3ccccc23)cc1 (configuration not stated) | 157 to 159 °C |
| O=C(O)c1ccc(N2CCCCC2=O)cc1 | 213 to 215 °C |
| O=C(O)CCCN1C(=O)c2ccccc2C1=O | 96 to 98 °C |
| O=C(NC1CC1)c1ccc(Br)cc1F | 111 to 113 °C |
| CCc1cc(N)on1 | 49 to 51 °C |
| Cc1cc(C(=O)O)nn1-c1ccccc1Cl | 179 to 181 °C |
| Cn1cnc2cc(C#N)ccc21 | 139 to 141 °C |
| ClCc1nnc(-c2cccc(Br)c2)o1 | 74 to 76 °C |
| O=C(O)C=Cc1cscn1 | 174 to 176 °C |
| N#CCCCn1cc(C(=O)O)nn1 | 164 to 166 °C |
| CC1=NC2(CCCC2)C(=O)N1 | 66 to 68 °C |
| COc1ccnc(NN)n1 | 119 to 121 °C |
| CCOc1cc2c(cc1/C=C/C(=O)O)OC(C)C2 (configuration not stated) | 169 to 171 °C |
| CS(=O)(=O)c1ccc(C(=O)Nc2c(Cl)cc(N)cc2Cl)cc1 | 238 to 240 °C |
| NC(=O)c1cccc2c1CCCN2 | 172 to 174 °C |
| CC1CN(C(=O)c2ccc(N)cc2)CC(C)O1 (configuration not stated) | 174 to 176 °C |

| SMILES | melting point |
| --- | --- |
| Nc1ccc(Br)nc1Cl | 113 to 115 °C |
| Nc1cc(Br)ccc1I | 49 to 51 °C |
| CSc1nc(-c2ccccc2)c[nH]1 | 130 to 132 °C |
| CS(=O)(=O)Cc1cccc(C(=O)O)c1 | 188 to 190 °C |
| Cc1cc(C(=O)NCC(=O)O)c(C)o1 | 179 to 181 °C |
| CN(C(=O)c1ccc(Cl)cc1)c1ccc(N)cc1 | 152 to 154 °C |
| Nc1nnc(CCCc2ccccc2)o1 | 165 to 167 °C |
| O=Cc1sc(N2CCCCC2)nc1Cl | 89 to 91 °C |
| Nc1cc(-c2ccc(F)cc2F)no1 | 110 to 112 °C |
| O=S(=O)(Cl)c1cc(Br)cnc1Cl | 61 to 63 °C |
| Cc1ccc(C(=O)O)cc1NC(=O)c1ccco1 | 230 to 232 °C |
| O=C(O)CC(n1cnc2sccc2c1=O)C(F)(F)F (configuration not stated) | 188 to 190 °C |
| CC(SC1=NS(=O)(=O)c2ccccc21)C(=O)O (configuration not stated) | 182 to 184 °C |
| O=C(CN=C=S)NC1CC1 | 169 to 171 °C |
| COC(C)c1nc(C)c(C(=O)O)s1 (configuration not stated) | 126 to 128 °C |
| O=C(Nc1ccccc1)C1CCN(C(=O)CCl)CC1 | 143 to 145 °C |
| CCOc1ccc(F)c(C(=O)O)c1F | 149 to 151 °C |
| CCCc1noc2ncc(C(=O)O)cc12 | 174 to 176 °C |
| OC(Cc1ccc(Cl)cc1)C(F)(F)F (configuration not stated) | 66 to 68 °C |
| CC(C)(C)OC(=O)N1CCCC(n2cc(C(=O)O)cn2)C1 (configuration not stated) | 166 to 168 °C |
| O=C(O)CCn1cnc2sc3c(c2c1=O)CCCC3 | 193 to 195 °C |
| CCS(=O)(=O)c1ccc(C(=O)O)cc1 | 216 to 218 °C |
| Cc1ccccc1C(C)(C)C(=O)O | 93 to 95 °C |
| Cc1ccc(-n2nc(C(C)(C)C)cc2N)cc1 | 116 to 118 °C |
| COc1ccc(CCC(=O)O)cc1N | 121 to 123 °C |

| SMILES | melting point |
| --- | --- |
| Cc1c(C(=O)O)cccc1-c1ccccn1 | 211 to 213 °C |
| CC(C)c1nnc(NC(=O)OCC(F)(F)F)s1 | 189 to 191 °C |
| CC(C)(C)OC(=O)N1CC(O)(c2ccc(F)c(F)c2)C1 | 69 to 71 °C |
| Cc1cc(C(=O)O)c2c(C)nn(C(C)(C)C)c2n1 | 189 to 191 °C |
| CC(C)Sc1ccc(C(=O)O)cc1 | 139 to 141 °C |
| Nc1nnc(Cc2cccc(F)c2)o1 | 146 to 148 °C |
| CCOC(=O)c1c(N)sc(C(=O)N(C)C)c1C | 118 to 122 °C |
| Oc1ccc(I)nc1 | 185 to 187 °C |
| CCOc1ccccc1-c1cccc(C(=O)O)c1 | 144 to 146 °C |
| Cc1cc(C)n2nc(O)cc2n1 | 241 to 243 °C |
| Cc1ccccc1OCC(=O)NN | 120 to 122 °C |
| O=[N+]([O-])c1cncc(Br)c1Cl | 45 to 47 °C |
| COc1ccc2cc(-c3cc(C(=O)O)c4ccccc4n3)ccc2c1 | 258 to 260 °C |
| CCC(Br)C(=O)c1ccc(OC)cc1 (configuration not stated) | 49 to 51 °C |
| N#CC(c1ccc(Br)cc1)N1CCNCC1 (configuration not stated) | 83 to 85 °C |
| Cc1ccccc1-c1cc(N)[nH]n1 | 168 to 170 °C |
| Cc1ccc(S(N)(=O)=O)s1 | 118 to 120 °C |
| CCNS(=O)(=O)c1ccc(Br)c(C)c1 | 91 to 93 °C |
| CC(=O)N(CCC(N)=S)C(C)C | 104 to 106 °C |
| O=C(O)c1ccn(-c2ccc(Cl)cc2)n1 | 169 to 171 °C |
| CS(=O)(=O)Cc1noc(CCl)n1 | 73 to 75 °C |
| Cc1ccc(-n2c(SCC(=O)NN)nnc2-c2ccccc2)cc1 | 90 to 92 °C |
| O=C(O)C(F)(F)c1ccc([N+](=O)[O-])cc1 | 129 to 131 °C |
| CN1C(=O)c2ccc(N)cc2C1=O | 247 to 249 °C |
| O=C(O)C1CCCCC1C(=O)N1CCCC1 (configuration not stated) | 119 to 121 °C |

| SMILES | melting point |
| --- | --- |
| O=C(O)CCCc1nc2ccccc2s1 | 148 to 150 °C |
| O=C(O)c1cc(O)cc(OCC(F)(F)F)c1 | 165 to 167 °C |
| CCOc1ccccc1C(=O)NCC(=O)O | 166 to 168 °C |
| NCc1ccc(C(=O)N2CCNC(=O)C2)cc1 | 143 to 145 °C |
| NC1CCCC(C(=O)NC2CC2)C1 (configuration not stated) | 97 to 99 °C |
| O=C(CBr)c1ccc2c(c1)CCO2 | 72 to 74 °C |
| COCC(=O)NC(C)C(=O)O (configuration not stated) | 108 to 110 °C |
| CNC1(C(N)=O)CCCC1 | 99 to 101 °C |
| NCC(=O)Nc1cccc(Br)c1 | 79 to 81 °C |
| O=Cc1cc(Cl)c2c(c1)OCCCO2 | 78 to 82 °C |
| CCOC(=O)c1c(C)nn(C)c1N | 101 to 103 °C |
| CC1=NN(C)C(=O)C1 | 109 to 111 °C |
| Nc1nc(-c2cccc(C(F)(F)F)c2)n[nH]1 | 221 to 223 °C |
| Cc1cc(C(=O)O)nn1-c1ccc(F)cc1 | 152 to 154 °C |
| CC(Cl)C(=O)N1CCN(C(=O)OC(C)(C)C)CC1 (configuration not stated) | 115 to 117 °C |
| COc1ccc(OC)c(NC(=O)CCl)c1 | 169 to 171 °C |
| N#Cc1ccc(NC(=O)NC(CCC(=O)O)C(=O)O)cc1 (configuration not stated) | 169 to 171 °C |
| Nc1c(-c2ccncc2)nc2ccccn12 | 211 to 213 °C |
| Cc1nn(CC(C)C)c(Cl)c1C(=O)O | 128 to 130 °C |
| O=C(CO)N1CCCc2ccccc21 | 80 to 82 °C |
| CC1=NOC(=O)C1CC(=O)O (configuration not stated) | 149 to 151 °C |
| COc1cc(CCC(=O)O)ccc1OCC(F)(F)F | 103 to 105 °C |
| Cn1ncnc1N | 180 to 182 °C |
| O=C(O)CCCOc1ccccc1F | 76 to 78 °C |
| Cc1nn(CCO)c(C)c1C=O | 67 to 69 °C |

| SMILES | melting point |
| --- | --- |
| CN1CC(=O)N(CC(=O)O)C1=O | 139 to 141 °C |
| Cc1nccn1-c1ccc(CN)cn1 | 45 to 47 °C |
| O=Cc1cnn2cccnc12 | 149 to 151 °C |
| COc1ccc([N+](=O)[O-])cc1CN | 101 to 103 °C |
| CCc1c(C)nc2ccccc2c1O | 279 to 281 °C |
| N#Cc1ccccc1NC(=O)CCCC(=O)O | 139 to 141 °C |
| NC(=O)c1cncc(O)c1 | 249 to 251 °C |
| Nc1ccc(S(N)(=O)=O)cn1 | 171 to 173 °C |
| O=C(Nc1cc(F)ccc1C(=O)O)c1cccc(Br)c1 | 217 to 219 °C |
| Nc1nonc1C(=O)N1CCCCC1 | 86 to 88 °C |
| Nc1cccc(-c2n[nH]c3c2CCCC3)c1 | 159 to 161 °C |
| N#Cc1cnn(-c2ncccn2)c1N | 320 to 322 °C |
| CC(C)S(=O)(=O)Nc1ccccc1F | 52 to 54 °C |
| CCCCCCCC(=O)NCC(=O)O | 104 to 106 °C |
| NS(=O)(=O)c1ccc(Cl)c2ccccc12 | 181 to 183 °C |
| CC(=O)CC(=O)Nc1ccc(C(C)C)cc1 | 68 to 70 °C |
| COc1cc(/C=C/C(=O)O)ccc1OC(C)C | 83 to 87 °C |
| N#CCC(=O)CCc1ccccc1 | 69 to 71 °C |
| CCOC(=O)N1CCN(S(=O)(=O)Cl)CC1 | 67 to 69 °C |
| NS(=O)(=O)c1ccc(Cl)cc1F | 104 to 106 °C |
| CC(Cl)C(=O)N1CC(=O)Nc2ccccc21 (configuration not stated) | 139 to 141 °C |
| CS(=O)(=O)C1CSCCN1 (configuration not stated) | 115 to 117 °C |
